# Reference: patent publication US20140316007A1 (RICHTER GEDEON NYRT., priority 2011, published 2014)
# Read-outs that look alike come from different tables or passages of the source.
# Columns and labels:
# [1] = mouse diet-induced obesity (DIO) test, weight loss; type: in vivo; details: two weeks, obese C57B16 mice
# Protocol: The experiments were performed using a diet-induced obesity (DIO) test. The DIO test is a widely accepted animal model of human obesity well mimicking the development and course of the disease, its comorbidities as well as its response to pharmacological medications (Hariri and Thibault Nutr. Res. Rev. 23:270-299 2010). Young (22-25 g) male C57B16 mice were fed with high-fat diet (e.g. D12492, Research Diets Inc., New Brunswick, N.J., USA), thus these animals became obese compared to mice kept on a control diet. The body weights of control and obese mice were 31.84±0.89 and 45.74±0.78 g, respectively, in the first experiment (n=8 per group, mean±SEM). These values were 30.47±0.58 and 45.38±0.61 g (n=20 per group) in the second experiment, and 27.61±0.34 and 41.00±0.91 (n=8 per group) in the third experiment (Study 2). Then the animals were assigned to different groups and treated with different vehicles or test compounds. Test compounds were dissolved in water and administered per os twice daily in a volume of 10 ml/kg of body weight. The animals were weighed daily during the experiments. The percent weight loss of each animal compared the baseline body weight was calculated at the end of the two-week-long experiment. The average percent weight change of the vehicle group was subtracted from the percent weight change of each animal, thus the vehicle-corrected weight loss was calculated. The statistical evaluation of results included descriptive statistics (mean and standard error). Furthermore, statistical significance of differences between groups was evaluated using one-way or factorial ANOVA test followed by Duncan's post-hoc test. Interactions between different treatments (i.e. combination of drugs) were evaluated using factorial ANOVA test.
# Baclofen caused a body weight loss of 3.2%, which was statistically non-significant. […] The doses shown in FIG. 1 were administered per os twice daily. The results are shown as mean±SE of percent vehicle-corrected weight loss. There were no statistical differences between the other three groups. (Number of animals: n=8 per group, except the memantine group, where n=7.)
# We have also tested the combination of phentermine and baclofen. In the study investigating the effects of 2.5 mg/kg phentermine and 2 mg/kg baclofen, both drugs decreased the body weight moderately (by 5.4% and 3.6%, respectively). […] There was no significant difference between the groups (including the vehicle group as well). […] Data in FIG. 3 are presented as mean±SE of percent vehicle-corrected weight loss.
# [2] = dose gradually increased to 20 mg/day, 16 obese binge eater patients; cited from earlier work
# rotarod test in mice = details: male, NMRI, mouse, in vivo, po
# Excerpt: The rotarod test is a widely used simple and objective method to detect the side effects affecting motor function in rodents. This method is also capable for sensitive detection of a central muscle relaxant effect, which is a pharmacological feature of both memantine and baclofen (Farkas et al. J. Pharmacol. Toxicol. Methods 52:264-273 2005). However, other CNS side effects (e.g. sleepiness, disturbances in coordination) also impair rotarod performance. Therefore this method was used to assess liability of the combination memantine and baclofen to produce unwanted side effects.
# Mice were placed on a rod rotating with a constant speed of 12 rpm. After training, i.e. after habituation to the rotarod three times for 120 seconds on the previous day, the mice are usually able to run on the rod for 120 seconds without falling down. Immediately before the treatment with the test compounds, the mice were tested and only those able to stay on the rod for 120 seconds were involved to the experiment. Test compounds were dissolved in distilled water (vehicle) and administered orally to groups of ten male NMRI mice (20-24 g). One group was treated with vehicle in each experimental session. […] We calculated the mean latency to fall in each group and the percent change relative to the latency in the vehicle group. […]
# [3] = recommended dosing regimen; cited from earlier work
# [4] = spontaneous horizontal motor activity of mice (LABORAS); type: in vivo; details: 12-hour light phase, C57B16J mice
# Excerpt: NMDA receptor antagonists are known to cause dose-dependent behavioral activation in rodents, which is manifested in increased locomotor activity (Sukhanov et al. Behav. Pharmacol. 15:263-271 2004). This behavior may correspond to side effects observed in the clinical practice, such as agitation and restlessness, which are rarely seen with memantine. We have studied the modulating effect of baclofen on the locomotor activity increasing effect of memantine when administered to mice in combination. Groups of male C57B16J mice (25-32 g; Wobe-Harlan, Hungary; 8-10 mice/group) were treated orally with 2 mg/kg baclofen, 2.5 mg/kg memantine or their combination or vehicle (distilled water) twice daily during the light phase of diurnal light-dark cycle. After one day of habituation, the activity of the animals was recorded continuously for 24 hours on the first and 14th day of treatment using an automated behavioral activity measurement system (LABORAS, Metris, Netherlands). However, only the data from the light phase (12 hours) are shown. The animals were housed individually during the whole experiment in their home cages, which enabled the activity recording as well. The mechanical vibrations and gravity related static signals evoked by the movement of the animals were transformed to an electrical signal by the system, and these recorded signals were evaluated off-line by a computer algorithm (Quinn et al. J. Neurosci. Methods 130:83-92 2003). The behavior of the mice was categorized by the software as locomotor activity, immobility, climbing and grooming. […] Statistical analysis was performed using ANOVA followed by Tukey's post hoc test. The statistical significance of effects of drug treatments was calculated compared to vehicle and also compared to other drug-treated groups.
# [5] = 30 mg/day, 12 weeks, cited from earlier work
# [6] = targeted dose 60 mg/day, within 10 weeks, binge eating patients; cited from earlier work
# [7] = cited from earlier work
compound,measurement,setting,value
CC(C)(N)Cc1ccccc1 [phentermine],vehicle-corrected body weight loss,"[1]; Study 2, 2.5 mg/kg phentermine per os twice daily",5.4%
CC12CC3CC(C)(C1)CC(N)(C3)C2 [memantine],effect on binge episodes and body weight,[2],decreased the number of binge episodes but not the body weight
same,ED50 at 60 min,rotarod test in mice,16.1 ± 1.7 mg/kg
same,side effect rate: dizziness,[3],0.8%
same,side effect rate: nausea,[3],0.9%
same,side effect rate: restlessness,[3],1.3%
same,side effect rate: tiredness,[3],0.4%
same,vehicle-corrected body weight loss,"[1]; Study 1, first experiment, 2.5 mg/kg memantine per os twice daily",0.1%
same,horizontal motor activity vs vehicle,"[4]; 2.5 mg/kg memantine orally twice daily, 14th day of treatment",statistically significantly (p<0.05) increased
same,horizontal motor activity vs vehicle,"[4]; 2.5 mg/kg memantine orally twice daily, first day of treatment",did not reach statistical significance
NCC(CC(=O)O)c1ccc(Cl)cc1 (racemic) [baclofen],mean body weight loss,[5]; 10 obese patients,1.7%
same,participants (out of 10) who lost more than 5% body weight,[5],one
same,ED50 at 60 min,rotarod test in mice,18.3 ± 3.3 mg/kg
same,mean body weight increase,[6],0.9 kg
same,vehicle-corrected body weight loss,"[1]; Study 1, first experiment, 2 mg/kg baclofen per os twice daily",3.2%
same,vehicle-corrected body weight loss,"[1]; Study 2, 2 mg/kg baclofen per os twice daily",3.6%
same,horizontal motor activity vs vehicle,"[4]; 2 mg/kg baclofen orally twice daily, 14th day of treatment","neither baclofen alone, nor the combination altered the motor activity"
same,horizontal motor activity vs vehicle,"[4]; 2 mg/kg baclofen orally twice daily, first day of treatment","neither baclofen alone, nor the combination altered the motor activity"
C[C@H]1CNCCc2ccc(Cl)cc21 [lorcaserin],weight loss relative to baseline,[7]; after 1-year-long treatment,5.8%
same,weight loss relative to baseline,[7]; at 12 weeks,3.5-4%
